Source: ChEMBL document CHEMBL3217699, “Discovery of potent, proteolytically stable, and cell permeable human sirtuin peptidomimetic inhibitors containing N-thioacetyl-lysine” (Medchemcomm, 2010)
Blank lines part the entries; values can stand above or below the compound they belong to. Calls of active or inactive are those of the source. The calls are words filed in the database; no cut-off is given here. Where a SMILES comes first, the peptide text is derived from it.

Columns and labels:
[1] = target: T1, NAD-dependent protein deacetylase sirtuin-1 (Homo sapiens) (UniProt Q96EB6); assay: Inhibition of SIRT1 in human HCT116 cells assessed as increase in p53 acetylation level at 500 uM by Western blot analysis; type: cell-based; conditions: HCT-116
T1 sequence (whole entry): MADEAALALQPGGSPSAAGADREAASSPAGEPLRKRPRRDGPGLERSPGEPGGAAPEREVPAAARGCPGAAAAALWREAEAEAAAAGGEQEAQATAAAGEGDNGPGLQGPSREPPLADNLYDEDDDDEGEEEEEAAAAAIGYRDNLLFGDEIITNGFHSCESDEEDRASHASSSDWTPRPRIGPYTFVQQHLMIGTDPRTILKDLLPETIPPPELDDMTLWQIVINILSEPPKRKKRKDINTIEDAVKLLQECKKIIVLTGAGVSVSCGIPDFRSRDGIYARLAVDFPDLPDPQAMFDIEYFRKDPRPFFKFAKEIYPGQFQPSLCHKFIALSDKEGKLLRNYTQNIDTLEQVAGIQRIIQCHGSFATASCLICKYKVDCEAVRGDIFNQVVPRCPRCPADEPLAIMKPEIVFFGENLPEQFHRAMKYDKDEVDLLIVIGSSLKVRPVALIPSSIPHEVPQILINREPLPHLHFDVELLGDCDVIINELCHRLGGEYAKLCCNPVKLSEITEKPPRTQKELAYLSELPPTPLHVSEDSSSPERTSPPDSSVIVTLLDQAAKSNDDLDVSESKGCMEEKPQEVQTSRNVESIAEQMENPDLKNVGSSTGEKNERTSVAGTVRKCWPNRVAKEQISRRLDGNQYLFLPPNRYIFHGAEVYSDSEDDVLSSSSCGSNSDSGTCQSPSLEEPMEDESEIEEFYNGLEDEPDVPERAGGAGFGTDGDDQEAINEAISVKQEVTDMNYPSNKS

[2] = target: Histone deacetylase 1 (Homo sapiens) (UniProt Q13547); assay: Activity of HDAC1 in human HeLa cells nuclear extract assessed as compound deacetylation measured up to 2 hrs by time course assay; type: cell-free
[3] = target: T2, NAD-dependent protein deacetylase sirtuin-3, mitochondrial (Homo sapiens, UniProt Q9NTG7); assay: Inhibition of GST-tagged SIRT3 (unknown origin) by HPLC assay
T2 sequence (Q9NTG7 whole entry): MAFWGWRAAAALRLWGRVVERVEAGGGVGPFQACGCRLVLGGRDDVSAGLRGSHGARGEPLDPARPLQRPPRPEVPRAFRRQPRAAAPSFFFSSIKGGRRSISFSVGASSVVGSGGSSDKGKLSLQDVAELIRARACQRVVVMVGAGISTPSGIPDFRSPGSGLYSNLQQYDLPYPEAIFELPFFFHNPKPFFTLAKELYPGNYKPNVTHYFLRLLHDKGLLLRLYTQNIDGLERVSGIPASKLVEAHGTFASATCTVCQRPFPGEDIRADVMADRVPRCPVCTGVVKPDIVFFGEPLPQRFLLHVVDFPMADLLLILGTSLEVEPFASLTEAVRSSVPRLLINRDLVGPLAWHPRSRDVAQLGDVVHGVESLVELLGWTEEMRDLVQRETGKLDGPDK

[4] = target: T1, NAD-dependent protein deacetylase sirtuin-1 (Homo sapiens); assay: Activity of GST-tagged SIRT1 (unknown origin) assessed as compound deacetylation measured up to 4 hrs by sirutin time course assay
[5] = target: T3, NAD-dependent protein deacetylase sirtuin-2 (Homo sapiens, UniProt Q8IXJ6); assay: Inhibition of GST-tagged SIRT2 (unknown origin) by HPLC assay
T3 sequence (Q8IXJ6 whole entry): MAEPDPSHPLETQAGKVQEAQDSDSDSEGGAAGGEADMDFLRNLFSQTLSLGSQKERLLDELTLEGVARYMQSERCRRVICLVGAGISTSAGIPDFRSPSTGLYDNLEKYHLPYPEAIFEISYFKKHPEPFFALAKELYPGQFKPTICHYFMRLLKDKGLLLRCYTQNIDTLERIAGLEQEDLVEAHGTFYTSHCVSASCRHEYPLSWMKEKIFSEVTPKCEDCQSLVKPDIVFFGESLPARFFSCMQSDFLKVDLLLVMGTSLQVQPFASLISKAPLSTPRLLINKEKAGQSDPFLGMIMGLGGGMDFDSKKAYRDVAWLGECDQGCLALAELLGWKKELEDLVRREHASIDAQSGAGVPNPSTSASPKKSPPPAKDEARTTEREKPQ

[6] = target: T4, NAD-dependent protein deacetylase sirtuin-3, mitochondrial (Homo sapiens) (UniProt Q9NTG7); assay: Activity of GST-tagged SIRT3 (unknown origin) assessed as compound deacetylation measured up to 4 hrs by sirutin time course assay
T4 sequence (whole entry): T2 sequence (Q9NTG7 whole entry)

[7] = target: Histone deacetylase 2 (Homo sapiens) (UniProt Q92769); assay: Activity of HDAC2 in human HeLa cells nuclear extract assessed as compound deacetylation measured up to 2 hrs by time course assay; type: cell-free
[8] = target: T5, Histone deacetylase 8 (Homo sapiens) (UniProt Q9BY41); assay: Activity of recombinant HDAC8 (unknown origin) assessed as compound deacetylation measured up to 4 hrs by time course assay
T5 sequence (whole entry): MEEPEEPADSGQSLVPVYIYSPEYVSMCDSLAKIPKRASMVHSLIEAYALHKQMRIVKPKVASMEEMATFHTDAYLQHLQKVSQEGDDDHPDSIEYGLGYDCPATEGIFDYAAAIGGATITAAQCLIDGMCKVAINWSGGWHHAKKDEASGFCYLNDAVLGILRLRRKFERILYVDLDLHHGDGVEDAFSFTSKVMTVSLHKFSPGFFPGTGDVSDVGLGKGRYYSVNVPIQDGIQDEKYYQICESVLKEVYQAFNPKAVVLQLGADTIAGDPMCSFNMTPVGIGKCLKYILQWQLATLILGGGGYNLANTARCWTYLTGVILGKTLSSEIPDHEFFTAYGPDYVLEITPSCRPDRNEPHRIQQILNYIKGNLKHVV

[9] = target: T6, NAD-dependent protein deacetylase sirtuin-2 (Homo sapiens) (UniProt Q8IXJ6); assay: Activity of GST-tagged SIRT2 (unknown origin) assessed as compound deacetylation measured up to 4 hrs by sirutin time course assay
T6 sequence (whole entry): T3 sequence (Q8IXJ6 whole entry)

[10] = target: T7, NAD-dependent protein deacetylase sirtuin-1 (Homo sapiens, UniProt Q96EB6); assay: Inhibition of human SIRT1 using peptide substrate assessed as deacetylase activity
T7 sequence (Q96EB6 whole entry): T1 sequence (whole entry)

[11] = Proteolytic stability of the compound assessed as degradation after 30 mins by HPLC in presence of pronase; type: ADME; conditions: 0.5 h
[12] = target: T1, NAD-dependent protein deacetylase sirtuin-1 (Homo sapiens); assay: Inhibition of SIRT1 in human HCT116 cells assessed as increase in p53 acetylation level at 5 uM by Western blot analysis; type: cell-based; conditions: HCT-116
[13] = target: T1, NAD-dependent protein deacetylase sirtuin-1 (Homo sapiens); assay: Inhibition of SIRT1 in human HCT116 cells assessed as increase in p53 acetylation level by Western blot analysis; type: cell-based; conditions: HCT-116
[14] = target: T6, NAD-dependent protein deacetylase sirtuin-2 (Homo sapiens); assay: Ratio of AGK2 to compound in GST-tagged SIRT2 (unknown origin)
[15] = target: T1, NAD-dependent protein deacetylase sirtuin-1 (Homo sapiens); assay: Inhibition of SIRT1 in human HCT116 cells assessed as increase in p53 acetylation level at 3 uM by Western blot analysis; type: cell-based; conditions: HCT-116
[16] = target: T1, NAD-dependent protein deacetylase sirtuin-1 (Homo sapiens); conditions: HCT-116, 10 uM
Description: Inhibition of SIRT1 in human HCT116 cells assessed as increase in p53 acetylation level at 10 uM by Western blot analysis

Sequence of Histone deacetylase 1 (Homo sapiens) (Q13547 whole entry): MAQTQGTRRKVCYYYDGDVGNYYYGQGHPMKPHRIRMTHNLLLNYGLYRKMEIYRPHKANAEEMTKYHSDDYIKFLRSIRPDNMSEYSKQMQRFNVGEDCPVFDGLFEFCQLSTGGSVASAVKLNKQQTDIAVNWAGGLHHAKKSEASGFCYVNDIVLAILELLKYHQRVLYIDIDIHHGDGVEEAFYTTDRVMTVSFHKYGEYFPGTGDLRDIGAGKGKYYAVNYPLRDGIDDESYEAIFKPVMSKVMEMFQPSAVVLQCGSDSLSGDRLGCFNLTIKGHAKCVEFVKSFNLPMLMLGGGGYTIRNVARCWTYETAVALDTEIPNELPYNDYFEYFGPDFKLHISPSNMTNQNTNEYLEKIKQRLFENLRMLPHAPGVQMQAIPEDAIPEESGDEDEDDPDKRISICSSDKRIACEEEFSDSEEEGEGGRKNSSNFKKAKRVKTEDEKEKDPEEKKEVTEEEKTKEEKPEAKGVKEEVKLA
Sequence of Histone deacetylase 2 (Homo sapiens) (Q92769 whole entry): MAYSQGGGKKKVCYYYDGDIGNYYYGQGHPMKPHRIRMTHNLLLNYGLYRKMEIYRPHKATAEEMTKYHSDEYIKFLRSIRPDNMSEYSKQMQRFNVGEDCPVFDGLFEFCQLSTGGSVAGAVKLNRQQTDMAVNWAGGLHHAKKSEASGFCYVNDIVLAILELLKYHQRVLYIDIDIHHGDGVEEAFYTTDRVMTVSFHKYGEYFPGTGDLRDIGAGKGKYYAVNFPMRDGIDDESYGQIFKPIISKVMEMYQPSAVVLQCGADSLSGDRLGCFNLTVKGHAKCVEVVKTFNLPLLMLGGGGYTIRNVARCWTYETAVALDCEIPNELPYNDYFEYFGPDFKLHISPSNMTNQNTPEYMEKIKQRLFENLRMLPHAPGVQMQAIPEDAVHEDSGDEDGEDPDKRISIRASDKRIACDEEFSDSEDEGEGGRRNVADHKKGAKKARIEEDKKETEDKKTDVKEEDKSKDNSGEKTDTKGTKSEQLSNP

IC50 [10]: 4.1 µM
Structure (SMILES): CSCC[C@H](NC(=O)[C@H](CC(C)C)NC(=O)[C@H](CCCCNC(C)=S)NC(=O)[C@H](CCCCNC(C)=O)NC(=O)[C@H](Cc1c[nH]cn1)NC(C)=O)C(N)=O (HELM PEPTIDE1{[ac].H.K.[CC(=S)NCCCC[C@H](N[*:1])C(=O)[*:2]].L.M.[am]}|PEPTIDE2{[ac]}$PEPTIDE1,PEPTIDE2,3:R3-1:R2$$$V2.0)

IC50 [10]: 0.7 µM
Structure (SMILES): CSCC[C@H](NC(=O)[C@H](CCCCNC(C)=O)NC(=O)[C@H](CCCCNC(C)=S)NC(=O)[C@H](CCCCN)NC(=O)[C@H](Cc1c[nH]cn1)NC(C)=O)C(N)=O (HELM PEPTIDE1{[ac].H.K.[CC(=S)NCCCC[C@H](N[*:1])C(=O)[*:2]].K.M.[am]}|PEPTIDE2{[ac]}$PEPTIDE1,PEPTIDE2,5:R3-1:R2$$$V2.0)

IC50 [10]: 2 µM
Structure (SMILES): CSCC[C@H](NC(=O)[C@H](CCCCNC(C)=O)NC(=O)[C@H](CCCCNC(C)=S)NC(=O)[C@H](CCCCNC(C)=O)NC(=O)[C@H](Cc1c[nH]cn1)NC(C)=O)C(N)=O (HELM PEPTIDE1{[ac].H.K.[CC(=S)NCCCC[C@H](N[*:1])C(=O)[*:2]].K.M.[am]}|PEPTIDE2{[ac]}|PEPTIDE3{[ac]}$PEPTIDE1,PEPTIDE2,3:R3-1:R2|PEPTIDE1,PEPTIDE3,5:R3-1:R2$$$V2.0)

Second part, the compound before the results:

Structure (SMILES): CSCC[C@H](NC(=O)[C@H](CC(C)C)NC(=O)[C@H](CCCC/N=C(/C)S)NC(=O)[C@H](CCCCN)NC(=O)[C@H](Cc1c[nH]cn1)NC(=O)[C@H](CCCN=C(N)N)NC(=O)[C@H](CO)NC(=O)[C@@H](NC(=O)[C@H](CO)NC(=O)[C@H](CCC(N)=O)NC(=O)CNC(=O)[C@H](CCCCN)NC(=O)[C@@H](N)CCCCN)[C@@H](C)O)C(=O)N[C@@H](Cc1ccccc1)C(=O)N[C@@H](CCCCN)C(=O)N[C@H](C(=O)N[C@@H](CCC(=O)O)C(=O)NCC(=O)O)[C@@H](C)O
inhibition [1]: inactive

Structure (SMILES): CC(=O)NCCC[C@H](NC(=O)[C@H](CCCCNC(C)=S)NC(=O)[C@H](CCCNC(C)=O)NC(C)=O)C(N)=O
Activity [2]: inactive
IC50 [3]: 4.3 µM
Activity [4]: inactive
IC50 [5]: 2.9 µM
Activity [6]: inactive
Activity [7]: inactive
Activity [8]: inactive
Activity [9]: inactive
IC50 [10]: 5.9 µM
Stability [11]: Stable
inhibition [12]: Active

Structure (SMILES): CSCC[C@H](NC(=O)[C@H](Cc1ccc(O)cc1)NC(=O)[C@H](CCCCNC(C)=S)NC(=O)[C@H](Cc1ccc(O)cc1)NC(=O)[C@H](Cc1c[nH]cn1)NC(C)=O)C(N)=O (HELM PEPTIDE1{[ac].H.Y.[CC(=S)NCCCC[C@H](N[*:1])C(=O)[*:2]].Y.M.[am]}$$$$V2.0)
IC50 [10]: 6 µM

Structure (SMILES): CSCC[C@H](NC(=O)[C@H](Cc1ccc(O)cc1)NC(=O)[C@H](CCCCNC(C)=S)NC(=O)[C@H](CCCCN)NC(=O)[C@H](Cc1c[nH]cn1)NC(C)=O)C(N)=O (HELM PEPTIDE1{[ac].H.K.[CC(=S)NCCCC[C@H](N[*:1])C(=O)[*:2]].Y.M.[am]}$$$$V2.0)
IC50 [10]: 3.5 µM

Structure (SMILES): CC(=O)NCCCC[C@H](NC(=O)[C@H](CCCCNC(C)=S)NC(=O)[C@H](CCCCNC(C)=O)NC(C)=O)C(N)=O
Activity [2]: 19%
IC50 [3]: 4.5 µM
Activity [4]: inactive
IC50 [5]: 2.4 µM
Activity [6]: inactive
inhibition [13]: Dose-dependent effect
Activity [7]: 19%
Ratio [14]: 23
inhibition [15]: Active
Activity [8]: inactive
Activity [9]: inactive
IC50 [10]: 2.1 µM
Stability [11]: Stable

Structure (SMILES): CC(=S)NCCCC[C@H](NC(=O)OCc1ccccc1)C(=O)Nc1ccccc1
inhibition [16]: inactive
IC50 [10]: 140 µM

Structure (SMILES): CSCC[C@H](NC(=O)[C@H](CC(C)C)NC(=O)[C@H](CCCCNC(C)=S)NC(=O)[C@H](Cc1ccc(O)cc1)NC(=O)[C@H](Cc1c[nH]cn1)NC(C)=O)C(N)=O (HELM PEPTIDE1{[ac].H.Y.[CC(=S)NCCCC[C@H](N[*:1])C(=O)[*:2]].L.M.[am]}$$$$V2.0)
IC50 [10]: 4.2 µM
